From patent US11478451B1, “Macrocyclic chlorine substituted indole derivatives” (Bayer Aktiengesellschaft, priority 2017, dated 2022)
Counter-ions that a name gives are not always drawn. Like-named read-outs stand apart in the source and are kept apart here.

What was measured:
[1] = test system: SUDHL5 cells; test: Induction of caspase-3/7 activity (Caspase-Glo 3/7), SUDHL5; type: cell-based; settings: EC50, median, SUDHL5, 3 h treatment
Summary of the method: (§1)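 Read-out: Caspase-Glo 3/7 signal, background-corrected against medium-only wells, taken after cells had been incubated with compounds for 3 h at 37 °C.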

[2] = test system: SUDHL10 cells; test: Induction of caspase-3/7 activity (Caspase-Glo 3/7), SUDHL10; type: cell-based; settings: EC50, median, SUDHL10, 3 h treatment
Summary of the method: as §1

[3] = test system: SUDHL5 cells; test: Antiproliferation assay (CellTiter-Glo, 72 h), SUDHL5; type: cell-based; settings: IC50, median, SUDHL5, 72 h, read-out: Antiproli SUDHL5 [M] (median)
Summary of the method: (§2)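 Treated cells sat 72 h in a humidified 37 °C incubator, outer wells unused, before CellTiter-Glo reagent and a 10 min wait preceded luminescence reading; identical measurement of a parallel day 0 plate defined time zero.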

[4] = test system: AMO-1 cells; test: Antiproliferation assay (CellTiter-Glo, 72 h), AMO-1; type: cell-based; settings: IC50, median, AMO-1, 72 h, read-out: Antiproli AMO-1 [M] median
Summary of the method: as §2

[5] = test system: HMC-1-8 cells; test: Antiproliferation assay (CellTiter-Glo, 72 h), HMC-1-8; type: cell-based; settings: IC50, median, HMC-1-8, 72 h, read-out: Antiproli HMC-1-8 [M] median
Summary of the method: as §2

[6] = test system: SUDHL5 cells; test: Induction of cytotoxicity (CellTiter-Glo, 5 h), SUDHL5; settings: SUDHL5, 5 h
[7] = test system: SUDHL10 cells; test: Induction of cytotoxicity (CellTiter-Glo, 5 h), SUDHL10; settings: SUDHL10, 5 h
[8] = Homo sapiens, SU-DHL-5, 5 h, read-out: Cytotox SUDHL5 [M] (median), IC50, median
[9] = Homo sapiens, SU-DHL10, 5 h, read-out: Cytotox SUDHL10 [M] (median), IC50, median
[10] = read-out: Cytotox SUDHL5 [M] (median), IC50, median
[11] = read-out: Cytotox SUDHL10 [M] (median), IC50, median

Structure (SMILES) | EC50 ([1]; Homo sapiens, SU-DHL-5, 3 h) [nM] | EC50 ([2]; Homo sapiens, SU-DHL10, 3 h) [nM] | IC50 ([3]; Homo sapiens, SU-DHL-5, 72 h) [M] | EC50 [1] [nM] | EC50 [2] [nM] | IC50 [3] [M] | IC50 ([4]; Homo sapiens, AMO1, 72 h) [M] | IC50 ([5]; 72 h) [M] | IC50 [6, 8] [M] | IC50 [7, 9] [M] | IC50 [6, 10] [M] | other results
CCc1c2c(nn1C)CN(C(=O)OCCC1CCOCC1)CCCCn1c(C(=O)O)c(CCCOc3cccc4cc(F)ccc34)c3ccc(Cl)c-2c31 [Example 138, (rac)-4-chloro-3-ethyl-7-{3-[(6-fluoronaphthalen-1-yl)oxy]propyl}-2-methyl-14-{[2-(oxan-4-yl)ethoxy]carbonyl}-10,11,12,13,14,15-hexahydro-2H-pyrazolo[3′,4′:8,9][1,6]diazacycloundecino[10,11,1-hi]indole-8-carboxylic acid] | 280 | 380 | 3.5e-07 | – | – | – | 4.7e-07 | 3e-06 | 2.4e-07 | 6e-07 | – | –
Cc1c2c(nn1C)COCC1CC1Cn1c(C(=O)O)c(CCCOc3cccc4ccccc34)c3ccc(Cl)c-2c31 (single isomer, unassigned) [Example 83, 3-chloro-4,5-dimethyl-14-{3-[(naphthalen-1-yl)oxy]propyl}-5,7,9a,10,10a,11-hexahydro-9H-cyclopropa[3,4]pyrazolo[4′,3′:9,10][1,6]oxazacycloundecino[8,7,6-hi]indole-13-carboxylic acid] | – | – | – | – | – | – | – | 7.4e-06 | – | – | – | EC50 ([1]; listed as 083): 220 nM; EC50 ([2]; listed as 083): 410 nM; IC50 ([3]; listed as 083): 5.2e-07 M; IC50 ([4]; listed as 083): 3.8e-07 M; IC50 ([6]; read-out: Cytotox SUDHL5 [M] (median), IC50, median, listed as 083): 5.8e-07 M; IC50 ([7]; read-out: Cytotox SUDHL10 [M] (median), IC50, median, listed as 083): 5.9e-07 M
Cc1c2c(nn1C)COCC(F)(F)CCn1c(C(=O)O)c(CCCOc3cccc4ccccc34)c3ccc(Cl)c-2c31 (racemic) [Example 55, (rac)-4-chloro-12,12-difluoro-2,3-dimethyl-7-{3-[(naphthalen-1-yl)oxy]propyl}-2,10,11,12,13,15-hexahydropyrazolo[4′,3′:9,10][1,6]oxazacycloundecino[8,7,6-hi]indole-8-carboxylic acid] | – | – | – | 600 | 520 | 4.3e-07 | – | 2.2e-06 | – | – | 6.7e-07 | IC50 [4]: 1.4e-06 M; IC50 [7, 11]: 7.4e-07 M
CCc1c2c(nn1C)COCCC(F)(F)Cn1c(C(=O)O)c(CCCOc3cccc4cc(F)ccc34)c3ccc(Cl)c-2c31 (single isomer, unassigned) [Example 97, (−)-4-chloro-3-ethyl-11,11-difluoro-7-{3-[(6-fluoronaphthalen-1-yl)oxy]propyl}-2-methyl-2,10,11,12,13,15-hexahydropyrazolo[4′,3′:9,10][1,6]oxazacycloundecino[8,7,6-hi]indole-8-carboxylic acid] | – | – | – | – | – | – | – | – | – | – | – | EC50 ([1]; listed as 097): 320 nM; EC50 ([2]; listed as 097): 450 nM; IC50 ([3]; listed as 097): 5.5e-07 M; IC50 ([4]; listed as 097): 2.2e-07 M; IC50 ([5]; listed as 097): 2.2e-06 M; IC50 ([6]; read-out: Cytotox SUDHL5 [M] (median), IC50, median, listed as 097): 4.4e-07 M; IC50 ([7]; read-out: Cytotox SUDHL10 [M] (median), IC50, median, listed as 097): 4.2e-07 M
CCc1c2c(nn1C)COCC1(CCn3c(C(=O)O)c(CCCOc4cccc5ccccc45)c4ccc(Cl)c-2c43)CC1 (single isomer, unassigned; enantiomer 2) [Example 74, (+)-4′-chloro-3′-ethyl-2′-methyl-7′-{3-[(naphthalen-1-yl)oxy]propyl}-2′,10′,11′,15′-tetrahydro-13′H-spiro[cyclopropane-1,12′-pyrazolo[4′,3′:9,10][1,6]oxazacycloundecino[8,7,6-hi]indole]-8′-carboxylic acid-N-ethylethanamine salt (Enantiomer 2)] | 140 | 570 | 7.6e-07 | – | – | – | 1.3e-06 | 9.4e-06 | 4.1e-07 | 4e-07 | – | –
CCc1c2c(nn1C)COCC1CC1Cn1c(C(=O)O)c(CCCOc3cccc4cc(F)ccc34)c3ccc(Cl)c-2c31 (single isomer, unassigned; (+)) [Example 107] | – | – | – | 390 | 470 | 7.2e-07 | – | 2.4e-06 | – | 5.9e-07 | 4.6e-07 | IC50 [4]: 5.5e-07 M
CCc1c2c(nn1C)CN(CC(F)F)CCCCn1c(C(=O)O)c(CCCOc3cccc4cc(F)ccc34)c3ccc(Cl)c-2c31 (single isomer, unassigned; enantiomer 2) [Example 76, (−)-4-chloro-14-(2,2-difluoroethyl)-3-ethyl-7-{3-[(6-fluoronaphthalen-1-yl)oxy]propyl}-2-methyl-10,11,12,13,14,15-hexahydro-2H-pyrazolo[3′,4′:8,9][1,6]diazacycloundecino[10,11,1-hi]indole-8-carboxylic acid N-ethylethanamine salt (Enantiomer 2)] | – | – | – | – | – | – | – | – | – | – | – | EC50 ([1]; listed as 076): 240 nM; EC50 ([2]; listed as 076): 260 nM; IC50 ([3]; listed as 076): 3.2e-07 M; IC50 ([4]; listed as 076): 2.4e-07 M; IC50 ([5]; listed as 076): 4.4e-06 M; IC50 ([6]; read-out: Cytotox SUDHL5 [M] (median), IC50, median, listed as 076): 3e-07 M; IC50 ([7]; read-out: Cytotox SUDHL10 [M] (median), IC50, median, listed as 076): 4e-07 M
CCc1c2c(nn1C)CN(C)CCCn1c(C(=O)O)c(CCCOc3cccc4cc(F)ccc34)c3ccc(Cl)c-2c31 [Example 113, (+)-12-chloro-11-ethyl-1-{3-[(6-fluoronaphthalen-1-yl)oxy]propyl}-7,10-dimethyl-4,5,6,7,8,10-hexahydropyrazolo[3′,4′:7,8][1,5]diazecino[9,10,1-hi]indole-2-carboxylic acid N-ethylethanamine salt] | – | – | – | 270 | 360 | 2.1e-06 | – | – | – | – | 3e-07 | IC50 [4]: 3.2e-07 M; IC50 [5]: 3.7e-06 M; IC50 [7, 11]: 6.5e-07 M

Continued, in another order:

EC50 ([1]; Homo sapiens, SU-DHL-5, 3 h) [nM] | EC50 ([2]; Homo sapiens, SU-DHL10, 3 h) [nM] | IC50 ([3]; Homo sapiens, SU-DHL-5, 72 h) [M] | EC50 [1] [nM] | EC50 [2] [nM] | IC50 [3] [M] | Structure (SMILES) | IC50 ([4]; Homo sapiens, AMO1, 72 h) [M] | IC50 ([5]; 72 h) [M] | IC50 [6, 8] [M] | IC50 [7, 9] [M] | IC50 [6, 10] [M] | other results
480 | 210 | 3.1e-07 | – | – | – | CCc1c2c(nn1C)COCCC(F)(F)Cn1c(C(=O)O)c(CCCOc3cccc4cc(F)ccc34)c3ccc(Cl)c-2c31 (racemic) [Example 96, (rac)-4-chloro-3-ethyl-11,11-difluoro-7-{3-[(6-fluoronaphthalen-1-yl)oxy]propyl}-2-methyl-2,10,11,12,13,15-hexahydropyrazolo[4′,3′:9,10][1,6]oxazacycloundecino[8,7,6-hi]indole-8-carboxylic acid] | 4.9e-07 | 5.3e-06 | 4.7e-07 | 3.5e-07 | – | –
– | – | – | 330 | 510 | 5.5e-07 | CCc1c2c(nn1C)CCCN(CC(F)F)CCn1c(C(=O)O)c(CCCOc3cccc4cc(F)ccc34)c3ccc(Cl)c-2c31 (racemic) [Example 118, (rac)-4-chloro-12-(2,2-difluoroethyl)-3-ethyl-7-{3-[(6-fluoro-1-naphthyl)oxy]propyl}-2-methyl-10,11,12,13,14,15-hexahydro-2H-pyrazolo[3′,4′:8,9][1,4]diazacycloundecino[10,11,1-hi]indole-8-carboxylic acid] | 5.1e-07 | – | – | – | 5.5e-07 | IC50 [5]: 2.5e-06 M; IC50 [7, 11]: 6.4e-07 M
510 | 1500 | 6.2e-07 | – | – | – | Cc1c2c(nn1C)CN(CC(F)(F)F)CCCCn1c(C(=O)O)c(CCCOc3cccc4cc(F)ccc34)c3ccc(Cl)c-2c31 (racemic) [Example 58, (rac)-4-chloro-7-{3-[(6-fluoronaphthalen-1-yl)oxy]propyl}-2,3-dimethyl-14-(2,2,2-trifluoroethyl)-10,11,12,13,14,15-hexahydro-2H-pyrazolo[3′,4′:8,9][1,6]diazacycloundecino[10,11,1-hi]indole-8-carboxylic acid] | 1.7e-06 | 5.8e-06 | 8.4e-07 | 2e-06 | – | –
